In BindingDB's records for doi:10.1021/jm031026e (Universit&#224, 2004):
pKi: −log10 of the molar value.

Molecular target: Sigma non-opioid intracellular receptor 1 (Cavia porcellus) (UniProt Q60492)
Experiment: In vitro binding affinity at opioid sigma-1 receptor in guinea pig brain membranes by (+)-[3H]pentazocine displacement.

Chain of Sigma non-opioid intracellular receptor 1 (Cavia porcellus) (Q60492 whole entry, looked up): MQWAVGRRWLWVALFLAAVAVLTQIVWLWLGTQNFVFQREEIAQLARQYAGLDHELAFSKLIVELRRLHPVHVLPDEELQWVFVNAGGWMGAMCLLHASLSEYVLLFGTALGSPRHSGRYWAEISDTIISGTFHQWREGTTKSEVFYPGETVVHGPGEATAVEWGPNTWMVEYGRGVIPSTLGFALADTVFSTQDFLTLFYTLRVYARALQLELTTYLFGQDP

Row | Compound | pKi
1 | c1ccc2c(CCCN3CCN(C4CCCCC4)CC3)cccc2c1 [1-Cyclohexyl-4-(3-naphthalen-1-yl-propyl)-piperazine] | 8.67
2 | c1ccc2c(CCCCN3CCN(C4CCCCC4)CC3)cccc2c1 [1-Cyclohexyl-4-(4-naphthalen-1-yl-butyl)-piperazine] | 9.66
3 | COc1cccc2c1CCCC2N1CCN(C2CCCCC2)CC1 (centres undefined) [1-Cyclohexyl-4-(5-methoxy-1,2,3,4-tetrahydro-naphthalen-1-yl)-piperazine] | 9.40
4 | COc1cccc2c1CCCC2CN1CCN(C2CCCCC2)CC1 (centres undefined) [1-Cyclohexyl-4-(5-methoxy-1,2,3,4-tetrahydro-naphthalen-1-ylmethyl)-piperazine] | 9.51
5 | c1ccc2c(CCCCCN3CCN(C4CCCCC4)CC3)cccc2c1 [1-Cyclohexyl-4-(5-naphthalen-1-yl-pentyl)-piperazine] | 8.62
6 | COc1cccc2c1CCCC2CCN1CCN(C2CCCCC2)CC1 (centres undefined) [1-Cyclohexyl-4-[2-(5-methoxy-1,2,3,4-tetrahydro-naphthalen-1-yl)-ethyl]-piperazine] | 8.80
7 | c1ccc2c(c1)CCCC2CCCN1CCN(C2CCCCC2)CC1 (centres undefined) [1-Cyclohexyl-4-[3-(1,2,3,4-tetrahydro-naphthalen-1-yl)-propyl]-piperazine] | 9.21
8 | COc1ccc2c(c1)CCCC2CCCN1CCN(C2CCCCC2)CC1 (centres undefined) [1-Cyclohexyl-4-[3-(6-methoxy-1,2,3,4-tetrahydro-naphthalen-1-yl)-propyl]-piperazine] | 9.44
9 | COc1ccc2c(c1)C(CCCN1CCN(C3CCCCC3)CC1)CCC2 (centres undefined) [1-Cyclohexyl-4-[3-(7-methoxy-1,2,3,4-tetrahydro-naphthalen-1-yl)-propyl]-piperazine] | 8.04
10 | c1ccc2c(c1)CCCC2CCCCCN1CCN(C2CCCCC2)CC1 (centres undefined) [1-Cyclohexyl-4-[5-(1,2,3,4-tetrahydro-naphthalen-1-yl)-pentyl]-piperazine] | 8.84
11 | COc1cccc2c1CCCC2CCCCCN1CCN(C2CCCCC2)CC1 (centres undefined) [1-Cyclohexyl-4-[5-(5-methoxy-1,2,3,4-tetrahydro-naphthalen-1-yl)-pentyl]-piperazine] | 8.82
12 | COc1cccc2c1CCCC2CCCCCCN1CCN(C2CCCCC2)CC1 (centres undefined) [1-Cyclohexyl-4-[6-(5-methoxy-1,2,3,4-tetrahydro-naphthalen-1-yl)-hexyl]-piperazine] | 8.51
13 | Oc1ccc2c(c1)CCCC2CCCN1CCN(C2CCCCC2)CC1 (centres undefined) [5-[3-(4-Cyclohexyl-piperazin-1-yl)-propyl]-5,6,7,8-tetrahydro-naphthalen-2-ol] | 9.16
14 | c1ccc(CCN2CCCCC2)cc1 [N-phenethylpiperidine] | 6.51
